How the values were obtained:
THP-1 cells = test: TNFα generation assay; format: cell-based, human; conditions: Homo sapiens, THP-1, THP-1 cells; Table 22; read-out: IC50 in TNFα generation assay
In short: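 THP-1 cells differentiated to macrophage-like cells with 10 ng/ml IFN-γ for 2 days, preincubated with compound 30 min at room temperature, then cultured 7 h on plates coated with human IgG (10 μg/ml). Secreted TNFα measured by ELISA or AlphaLISA.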

[1] = target: T1, glutathione S-transferase (GST)-fused full-length human Syk protein (Homo sapiens, UniProt P43405); test: Syk enzyme assay; format: biochemical; conditions: Syk enzyme assay, Test Example 1; read-out: IC50 of Syk-inhibitory activity
T1 construct: (GST)-fused full-length human Syk protein; GST (glutathione S-transferase); purchased Carna Biosciences
In short: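 GST-tagged full-length human Syk (baculovirus) preincubated with compound 15 min at room temperature (pH 7.0, 10 mM MgCl2), then reacted 40 min with 0.4 μM biotinylated peptide substrate and 27 μM ATP (final). Phosphorylation read by HTRF (615/665 nm) after EDTA stop; IC50 reported.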

Structure (SMILES)	IC50 (THP-1 cells)	IC50 [1]
C[C@@H](N)[C@@H](C)Nc1nc(Nc2ccc3ncccc3c2)c(C(N)=O)cc1F [Example 006-224, 6-(((2R,3R)-3-aminobutan-2-yl)amino)-5-fluoro-2-((quinolin-6-yl)amino)nicotinamide]	< 65 nM	10 to 50 nM
CC(C)C[C@H](CN)Nc1nc(Nc2ccc3cnn(C)c3c2)c(C(N)=O)cc1F [Example 006-226, (R)-6-((1-amino-4-methylpentan-2-yl)amino)-5-fluoro-2-((1-methyl-1H-indazol-6-yl)amino)nicotinamide]	65 to 130 nM	< 10 nM
CC(C)C[C@H](CN)Nc1nc(Nc2cccc3c2cnn3C)c(C(N)=O)cc1F [Example 006-227, (R)-6-((1-amino-4-methylpentan-2-yl)amino)-5-fluoro-2-((1-methyl-1H-indazol-4-yl)amino)nicotinamide]	130 to 200 nM	< 10 nM
CC(C)C[C@H](CN)Nc1nc(Nc2ccc3cccnc3c2)c(C(N)=O)cc1F [Example 006-228, (R)-6-((1-amino-4-methylpentan-2-yl)amino)-5-fluoro-2-((quinolin-7-yl)amino)nicotinamide]	130 to 200 nM	< 10 nM
CC(C)C[C@H](CN)Nc1nc(Nc2cccc3ncccc23)c(C(N)=O)cc1F [Example 006-229, (R)-6-((1-amino-4-methylpentan-2-yl)amino)-5-fluoro-2-((quinolin-5-yl)amino)nicotinamide]	65 to 130 nM	< 10 nM
COc1ccc2ncc(Nc3nc(N[C@@H](CN)CC(C)C)c(F)cc3C(N)=O)cc2c1 [Example 006-232, (R)-6-((1-amino-4-methylpentan-2-yl)amino)-5-fluoro-2-((6-methoxyquinolin-3-yl)amino)nicotinamide]	130 to 200 nM	< 10 nM
Cc1ccc(Nc2nc(N[C@@H](CN)CC(C)C)c(F)cc2C(N)=O)cn1 [Example 006-233, (R)-6-((1-amino-4-methylpentan-2-yl)amino)-5-fluoro-2-((6-methylpyridin-3-yl)amino)nicotinamide]	130 to 200 nM	10 to 50 nM
COc1cc(Nc2nc(N[C@@H](CN)CC(C)C)c(F)cc2C(N)=O)ccn1 [Example 006-234, (R)-6-((1-amino-4-methylpentan-2-yl)amino)-5-fluoro-2-((2-methoxypyridin-4-yl)amino)nicotinamide]	65 to 130 nM	< 10 nM
CCC[C@@H](Nc1nc(Nc2ccc3c(cnn3C)c2)c(C(N)=O)cc1F)[C@H](C)N [Example 006-236, 6-(((2S,3R)-2-aminohexan-3-yl)amino)-5-fluoro-2-((1-methyl-1H-indazol-5-yl)amino)nicotinamide]	< 65 nM	< 10 nM
CCC[C@@H](Nc1nc(Nc2ccc3c(cnn3CC)c2)c(C(N)=O)cc1F)[C@H](C)N [Example 006-237, 6-(((2S,3R)-2-aminohexan-3-yl)amino)-2-((1-ethyl-1H-indazol-5-yl)amino)-5-fluoronicotinamide]	< 65 nM	< 10 nM
CCC[C@@H](Nc1nc(Nc2cnc3cc(OCCOC)ccc3c2)c(C(N)=O)cc1F)[C@H](C)N [Example 006-238, 6-(((2S,3R)-2-aminohexan-3-yl)amino)-5-fluoro-2-((7-(2-methoxyethoxy)quinolin-3-yl)amino)nicotinamide]	< 65 nM	< 10 nM
CCC[C@@H](Nc1nc(Nc2ccc3c(OC)nccc3c2)c(C(N)=O)cc1F)[C@H](C)N [Example 006-239, 6-(((2S,3R)-2-aminohexan-3-yl)amino)-5-fluoro-2-((1-methoxyisoquinolin-6-yl)amino)nicotinamide]	< 65 nM	< 10 nM
CCC[C@@H](Nc1nc(Nc2ccc3nccnc3c2)c(C(N)=O)cc1F)[C@H](C)N [Example 006-240, 6-(((2S,3R)-2-aminohexan-3-yl)amino)-5-fluoro-2-((quinoxalin-6-yl)amino)nicotinamide]	< 65 nM	< 10 nM
CCC[C@@H](Nc1nc(Nc2cncc3ccccc23)c(C(N)=O)cc1F)[C@H](C)N [Example 006-241, 6-(((2S,3R)-2-aminohexan-3-yl)amino)-5-fluoro-2-((isoquinolin-4-yl)amino)nicotinamide]	65 to 130 nM	< 10 nM
CCC[C@@H](Nc1nc(Nc2cnc3ccc(OC)cc3c2)c(C(N)=O)cc1F)[C@H](C)N [Example 006-242, 6-(((2S,3R)-2-aminohexan-3-yl)amino)-5-fluoro-2-((6-methoxyquinolin-3-yl)amino)nicotinamide]	65 to 130 nM	< 10 nM
CCC[C@@H](Nc1nc(Nc2ccc3cccnc3c2)c(C(N)=O)cc1F)[C@H](C)N [Example 006-244, 6-(((2S,3R)-2-aminohexan-3-yl)amino)-5-fluoro-2-((quinolin-7-yl)amino)nicotinamide]	65 to 130 nM	< 10 nM

Structure (SMILES)	IC50 (THP-1 cells)	IC50 [1]
CCC[C@@H](Nc1nc(Nc2ccc3nc(C)cnc3c2)c(C(N)=O)cc1F)[C@H](C)N [Example 006-245, 6-(((2S,3R)-2-aminohexan-3-yl)amino)-5-fluoro-2-((2-methylquinoxalin-6-yl)amino)nicotinamide]	65 to 130 nM	< 10 nM
CCC[C@@H](Nc1nc(Nc2cncc(-c3ccccc3)c2)c(C(N)=O)cc1F)[C@H](C)N [Example 006-247, 6-(((2S,3R)-2-aminohexan-3-yl)amino)-5-fluoro-2-((5-phenylpyridin-3-yl)amino)nicotinamide]	130 to 200 nM	< 10 nM
CCC[C@@H](Nc1nc(Nc2cc(OC)nc(OC)c2)c(C(N)=O)cc1F)[C@H](C)N [Example 006-248, 6-(((2S,3R)-2-aminohexan-3-yl)amino)-2-((2,6-dimethoxypyridin-4-yl)amino)-5-fluoronicotinamide]	65 to 130 nM	< 10 nM
CCC[C@@H](Nc1nc(Nc2cnc(C)c(C3CC3)c2)c(C(N)=O)cc1F)[C@H](C)N [Example 006-250, 6-(((2S,3R)-2-aminohexan-3-yl)amino)-2-((5-cyclopropyl-6-methylpyridin-3-yl)amino)-5-fluoronicotinamide]	130 to 200 nM	< 10 nM
CCC[C@@H](Nc1nc(Nc2cccc3c2cnn3C)c(C(N)=O)cc1F)[C@H](C)N [Example 006-251, 6-(((2S,3R)-2-aminohexan-3-yl)amino)-5-fluoro-2-((1-methyl-1H-indazol-4-yl)amino)nicotinamide]	< 65 nM	< 10 nM
CCC[C@@H](Nc1nc(Nc2cnc(C)c(-n3nccn3)c2)c(C(N)=O)cc1F)[C@H](C)N [Example 006-252, 6-(((2S,3R)-2-aminohexan-3-yl)amino)-5-fluoro-2-((6-methyl-5-(2H-1,2,3-triazol-2-yl)pyridin-3-yl)amino)nicotinamide]	65 to 130 nM	< 10 nM
CCC[C@@H](Nc1nc(Nc2cnc(OC)c(-n3nccn3)c2)c(C(N)=O)cc1F)[C@H](C)N [Example 006-253, 6-(((2S,3R)-2-aminohexan-3-yl)amino)-5-fluoro-2-((6-methoxy-5-(2H-1,2,3-triazol-2-yl)pyridin-3-yl)amino)nicotinamide]	130 to 200 nM	10 to 50 nM
CC[C@@H](Nc1nc(Nc2cncc(C3CC3)c2)c(C(N)=O)cc1F)[C@H](C)N [Example 006-255, 6-(((2S,3R)-2-aminopentan-3-yl)amino)-2-((5-cyclopropylpyridin-3-yl)amino)-5-fluoronicotinamide]	65 to 130 nM	< 10 nM
CC[C@@H](Nc1nc(Nc2ccnc(-c3ccco3)c2)c(C(N)=O)cc1F)[C@H](C)N [Example 006-256, 6-(((2S,3R)-2-aminopentan-3-yl)amino)-5-fluoro-2-((2-(furan-2-yl)pyridin-4-yl)amino)nicotinamide]	65 to 130 nM	< 10 nM
CC[C@@H](Nc1nc(Nc2cccc3cccnc23)c(C(N)=O)cc1F)[C@H](C)N [Example 006-258, 6-(((2S,3R)-2-aminopentan-3-yl)amino)-5-fluoro-2-((quinolin-8-yl)amino)nicotinamide]	130 to 200 nM	50 to 100 nM
CC[C@@H](Nc1nc(Nc2cnc3cc(OCCOC)ccc3c2)c(C(N)=O)cc1F)[C@H](C)N [Example 006-259, 6-(((2S,3R)-2-aminopentan-3-yl)amino)-5-fluoro-2-((7-(2-methoxyethoxy)quinolin-3-yl)amino)nicotinamide]	< 65 nM	< 10 nM
CC[C@@H](Nc1nc(Nc2ccc3nccnc3c2)c(C(N)=O)cc1F)[C@H](C)N [Example 006-260, 6-(((2S,3R)-2-aminopentan-3-yl)amino)-5-fluoro-2-((quinoxalin-6-yl)amino)nicotinamide]	< 65 nM	< 10 nM
CC[C@@H](Nc1nc(Nc2ccc3cccnc3c2)c(C(N)=O)cc1F)[C@H](C)N [Example 006-261, 6-(((2S,3R)-2-aminopentan-3-yl)amino)-5-fluoro-2-((quinolin-7-yl)amino)nicotinamide]	< 65 nM	< 10 nM
CC[C@@H](Nc1nc(Nc2cncc3ccccc23)c(C(N)=O)cc1F)[C@H](C)N [Example 006-262, 6-(((2S,3R)-2-aminopentan-3-yl)amino)-5-fluoro-2-((isoquinolin-4-yl)amino)nicotinamide]	< 65 nM	< 10 nM
CC[C@@H](Nc1nc(Nc2cnc3ccc(OC)cc3c2)c(C(N)=O)cc1F)[C@H](C)N [Example 006-264, 6-(((2S,3R)-2-aminopentan-3-yl)amino)-5-fluoro-2-((6-methoxyquinolin-3-yl)amino)nicotinamide]	< 65 nM	< 10 nM

Reference: US8895585B2, “Nicotinamide derivative or salt thereof” (FUJIFILM Corporation, priority 2010, dated 2014)
